Measurements reported in patent US20260076346A1, “IMMUNODEFICIENT NON-HUMAN ANIMALS FOR ASSESSING DRUG METABOLISM AND TOXICITY” (UNIVERSITY OF DUNDEE, priority 2022, published 2026).
Entries after “also recorded” stand apart in the source; their conditions may differ.

What was measured:
[1] = test system: 5555 murine melanoma cells; test: Syngeneic graft of 5555 murine melanoma cells in 8HUM mice, tumour volume under daily oral treatment; assay type: in vivo, mouse; conditions: adult female 8HUM mice, n=5, 31.5 mg/kg daily p.o. from day 5 after implantation, study ended day 15, versus vehicle
Description: FIG. 1: A. Xenograft of BRAFV600E human melanoma A375 cells in Rag2^null/8HUM mice (top). Bottom-no growth of A375 cells in immunocompetent 8HUM mice. B. Growth of a murine melanoma syngeneic graft in 8HUM mice and response to dabrafenib treatment. Adult female 8HUM_Rag2−/− mice (18-21w, n=5) were injected subcutaneously (s.c.) in one flank with 3.5×10^6 5555 murine melanoma cells, in 100 μl ECM diluted 1:1 with DMEM. […] Tumour measurements were taken three times weekly, then daily as required, and tumour volume calculated as detailed in Methods section. […]
Data analysis: Dependencies of calculated tumour volumes versus time were analysed by non-linear regression using exponential growth and exponential decay functions (Prism 5 software, Graphpad, US). […]
A375 human melanoma cells (ATCC: CRL-1619; RRID: CVCL_UD29) and 5555 murine melanoma cells (19-21) were grown as directed, with the latter subject to commercial murine pathogen testing (IDEXX Bioanalytics GmbH, Germany) and both to in-house mycoplasma testing (MycoAlert Mycoplasma Detection kit, Lonza Rockland, USA) before use. Passage number was recorded for each study. […]
Once established, tumours were measured twice in two dimensions (maximum breadth and length) using digital callipers, by the same person to avoid interindividual variation. […]

[2] = test system: BRAFV600E human melanoma A375 cells; test: A375 human melanoma xenograft in 8HUM_Rag2-/- mice, tumour volume under daily oral treatment; assay type: in vivo; conditions: adult female 8HUM_Rag2-/- mice
Description: Adult female 8HUM mice (11-19w, n=3) were injected s.c. in both flanks with 4.4×10^6 A375 melanoma cells, in 100 μl DMEM. Tumours were allowed to establish and on day 28 after implantation daily treatment was commenced with either vehicle (0.5% (w/v) hydroxypropylmethylcellulose, 0.2% (v/v) Tween-80; closed circles) or dabrafenib (in vehicle, open circles) suspended at 6.3 mg/ml and administered at 5 ml/kg, such that dabrafenib dose administered was 31.5 mg/kg (arrow). Tumour measurements were taken three times weekly, then daily as required, and total volume of tumours on both flanks was calculated as detailed in Methods section.
Adult female (>8<22 weeks) mice were randomly allocated into control or experimental groups and allowed to adapt to their social setting for 7d before study start. Cages were adjacent to each other on the same level of a ventilated rack, in the same room, for the study duration.
Data analysis: Dependencies of calculated tumour volumes versus time were analysed by non-linear regression using exponential growth and exponential decay functions (Prism 5 software, Graphpad, US). Rate constants in both functions were constrained to positive values to maintain consistency with the function name. Values for plateau parameters in exponential decay function were set to zero.

[3] = test system: 5555 murine melanoma cell line; conditions: reported by Hirata et al.; cited from earlier work
[4] = test system: 5555 murine melanoma cell line; conditions: reported by Hirata et al.; cited from earlier work; remark: listed apart in the source

SMILES	tumour growth / mean tumour volume of 5555 (GM5555) murine melanoma syngeneic graft [1]	tumour growth / mean tumour volume of 5555 (GM5555) murine melanoma syngeneic graft ([1]; listed as Dabrafenib)	fit of tumour volume versus time by non-linear regression (exponential growth or decay) ([2]; A375 xenograft, 31.5 mg/kg daily p.o. d28-d35, vehicle group followed exponential growth)	total mean tumour volume of A375 xenograft (both flanks) ([2]; n=3, 31.5 mg/kg daily p.o. from d28 to d35, versus vehicle)	sensitivity of 5555 cell line in vivo [3]	sensitivity of 5555 cell line in vitro [4]
CC(C)(C)c1nc(-c2cccc(NS(=O)(=O)c3c(F)cccc3F)c2F)c(-c2ccnc(N)n2)s1 [dabrafenib]	became almost undetectable; also recorded: exquisitely sensitive	successfully inhibited	follows exponential decay dependency	shrank in size		
CCCS(=O)(=O)Nc1ccc(F)c(C(=O)c2c[nH]c3ncc(Cl)cc23)c1F [PLX4720]					refractory	sensitive
